Results reported in patent US11827616B2, “Heterocyclic compounds as pesticides” (Discovery Purchaser Corporation, priority 2018, dated 2023).

Key:
Format in all cases: in vivo
Nezara viridula = Nezara viridula spray test; conditions: application rate 500 g/ha; after 4 days
Method: Nezara viridula—Spray Test
(§1) Solvent: 78.0 parts by weight of acetone • • 1.5 parts by weight of dimethylformamide
(§2) Emulsifier: alkylaryl polyglycol ether
(§3) To produce a suitable active compound formulation, 1 part by weight of active compound is dissolved with the specified parts by weight of solvent and made up to the desired concentration with water containing an emulsifier concentration of 1000 ppm. To produce further test concentrations, the formulation is diluted with emulsifier-containing water.
Barley plants (Hordeum vulgare) infected with larvae of the Southern green shield bug (Nezara viridula) are srayed with an active compound formulation of the desired concentration.
After 4 days, the efficacy in % is determined. 100% means that all of the shield bugs have been killed; 0% means that none of the shield bugs have been killed.

Phaedon cochleariae = Phaedon cochleariae spray test; conditions: application rate 500 g/ha; after 7 days
Procedure, shortened: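 Chinese cabbage leaf discs sprayed with compound formulated in acetone/DMF and water with 1000 ppm emulsifier, then infested with mustard beetle larvae once dry. Percent larval kill scored after 7 days (100% = all dead, 0% = none).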

Nilaparvata lugens = Nilaparvata lugens test; conditions: application rate 500 g/ha; after 4 days
Method: as §1, §2, §3
Rice plants (Oryza sativa) are sprayed with the active compound formulation of the desired concentration and then infected with the brown planthopper (Nilaparvata lugens).
After 4 days, the efficacy in % is determined. 100% means that all of the planthoppers have been killed; 0% means that none of the planthoppers have been killed.

Tetranychus urticae = Tetranychus urticae spray test, OP-resistant; conditions: application rate 500 g/ha; after 6 days
Procedure, shortened: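 Bean leaf discs carrying all stages of OP-resistant Tetranychus urticae were sprayed with compound in acetone/dimethylformamide diluted in water containing alkylaryl polyglycol ether emulsifier (1000 ppm). Mortality scored after 6 days as % efficacy (100% = all mites killed).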

Myzus persicae = Myzus persicae spray test; conditions: application rate 500 g/ha; after 5 days
Method: Myzus persicae—Spray Test
Solvent: 78 parts by weight of acetone • • 1.5 parts by weight of dimethylformamide
as §2, §3
Discs of Chinese cabbage leaves (Brassica pekinensis) infested by all stages of the green peach aphid (Myzus persicae) are sprayed with an active compound formulation of the desired concentration.
After 5 days, the efficacy in % is determined. 100% means that all the aphids have been killed; 0% means that no aphids have been killed.

Spodoptera frugiperda = Spodoptera frugiperda spray test; conditions: application rate 500 g/ha; after 7 days
Procedure, shortened: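 Maize leaf discs sprayed with compound formulated in acetone/dimethylformamide and diluted in water with 1000 ppm alkylaryl polyglycol ether emulsifier. Once dry, discs are infested with fall armyworm caterpillars. Efficacy in % read after 7 days: 100% all caterpillars killed, 0% none killed.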

Boophilus microplus = Boophilus microplus injection test; conditions: application rate 20 μg/animal, after 7 days
Procedure, shortened: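 Compound dissolved in DMSO; 1 μl injected into the abdomen of engorged adult female ticks, five per group, kept in climate-controlled room. Efficacy scored after 7 days from fertile egg laying (100% = no fertile eggs; 0% = all fertile), with unclear eggs held ~42 days until hatching.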

Meloidogyne incognita = Meloidogyne incognita test; conditions: application rate 20 ppm; after 14 days
Method: Meloidogyne incognita Test
Solvent: 125.0 parts by weight of acetone
To produce a suitable active compound formulation, 1 part by weight of active compound is mixed with the stated amount of solvent and the concentrate is diluted to the desired concentration with water.
Vessels are filled with sand, active compound solution, an egg/larvae suspension of the southern root-knot nematode (Meloidogyne incognita) and lettuce seeds. The lettuce seeds germinate and the plants develop. The galls develop on the roots.
After 14 days, the nematicidal efficacy in % is determined by the formation of galls. 100% means that no galls were found; 0% means that the number of galls on the treated plants corresponds to the untreated control.

Ctenocephalides felis = Ctenocephalides felis oral test; conditions: application rate 100 ppm in citrated cattle blood; after 2 days
Procedure, shortened: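 About 20 unfed adult cat fleas fed via parafilm membrane on citrated cattle blood containing compound (DMSO formulation). Kill % scored after 2 days, 100% meaning all fleas dead.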

Musca domestica = Musca domestica test; conditions: application rate 100 ppm; adult houseflies; after 2 days
Method: Solvent: dimethyl sulfoxide
To produce a suitable active compound formulation, 10 mg of active compound are mixed with 0.5 ml of dimethyl sulfoxide, and the concentrate is diluted with water to the desired concentration.
Vessels containing a sponge treated with sugar solution and the desired concentration of active compound formulation are populated with 10 adult houseflies (Musca domestica).
After 2 days, the kill in % is determined. 100% means that all of the flies have been killed; 0% means that none of the flies have been killed.

Lucilia cuprina = Lucilia cuprina test; conditions: application rate 100 ppm; L1 larvae; after 2 days
Procedure, shortened: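 About 20 first-instar larvae were placed in vessels of minced horsemeat with compound at the desired concentration. Compound was dissolved in DMSO and diluted in water. Percent kill scored after 2 days.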

Compound | efficacy (Nezara viridula) [%] | efficacy (Phaedon cochleariae) [%] | efficacy (Nilaparvata lugens) [%] | efficacy (Tetranychus urticae) [%] | efficacy (Myzus persicae) [%] | efficacy (Spodoptera frugiperda) [%] | efficacy (laying of fertile eggs) (Boophilus microplus) [%] | nematicidal efficacy (formation of galls) (Meloidogyne incognita) [%] | efficacy (kill in %) (Ctenocephalides felis) [%] | efficacy (kill in %) (Musca domestica) [%] | efficacy (kill in %) (Lucilia cuprina) [%]
CON(C)CCOc1cnc(COc2ccc(F)c(-c3cccc(OC(F)(F)F)c3)c2)c(F)c1 [Example 50] | 100 | 100 | 100 | 100 | 90 | 100 |  |  |  |  | 
CC(=O)N1CCC(Oc2ccc(COc3ccc(Cl)c4ccccc34)cn2)C1 (stereo not shown) [Example 4] |  | 100 |  |  |  | 100 | 100 | 90 | 100 | 80 | 100
